From patent publication US20100267561A1, “HERBICIDAL PYRIDAZINONE DERIVATIVES” (priority 2007, published 2010)
Read-outs that look alike come from different tables or passages of the source.

Columns and labels:
Experiment in all cases: Test B pre-/postemergence plant response
Format in all cases: in vivo
soybean (Glycine max) = conditions: Glycine max, read-out: Plant response rating, Soybean; for plant injury at 31 g/ha: 31 g ai/ha, 100 complete control; for plant injury at 250 g/ha: 250 g ai/ha
Summary of the method: (§1)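 Preemergence and postemergence (plants 2-18 cm, 1- to 4-leaf stage) applications used test chemicals in a non-phytotoxic solvent with surfactant. Plants were held in a greenhouse 13 to 15 days, then rated visually against controls on a 0-100 scale (0 no effect, 100 complete control).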

[1] = tested on: morningglory (Ipomoea coccinea); conditions: Ipomoea, read-out: Plant response rating, Morningglory; for pest or weed control at 62 g/ha: 62 g ai/ha; for pest or weed control at 62 g/ha / pest or weed control at 125 g/ha / pest or weed control at 250 g/ha: scale 0 to 100; for pest or weed control at 125 g/ha: 125 g ai/ha; for pest or weed control at 250 g/ha: 250 g ai/ha
Summary of the method: as §1

[2] = tested on: cocklebur (Xanthium strumarium); conditions: Xanthium strumarium, read-out: Plant response rating, Cocklebur; for pest or weed control at 31 g/ha: 31 g ai/ha, 100 complete control; for pest or weed control at 62 g/ha: 62 g ai/ha; for pest or weed control at 62 g/ha / pest or weed control at 125 g/ha / pest or weed control at 250 g/ha: scale 0 to 100; for pest or weed control at 125 g/ha: 125 g ai/ha; for pest or weed control at 250 g/ha: 250 g ai/ha
Summary of the method: as §1

[3] = tested on: catchweed bedstraw (Galium aparine); conditions: Galium aparine, pre-emergence, Preemergence, read-out: Plant response rating, Galium
Summary of the method: as §1

[4] = tested on: downy bromegrass (Bromus tectorum); conditions: Bromus tectorum, read-out: Plant response rating, Bromegrass, Downy; for pest or weed control at 31 g/ha: 31 g ai/ha, 100 complete control; for pest or weed control at 62 g/ha: 62 g ai/ha; for pest or weed control at 125 g/ha: 125 g ai/ha; for pest or weed control at 250 g/ha: 250 g ai/ha
Summary of the method: as §1

kochia (Kochia scoparia) = tested on: kochia (Kochia scoparia)
Summary of the method: as §1

[5] = tested on: bermudagrass (Cynodon dactylon); conditions: for pest or weed control at 31 g/ha: 31 g ai/ha, 100 complete control; for pest or weed control at 62 g/ha: 62 g ai/ha; for pest or weed control at 125 g/ha: 125 g ai/ha
Summary of the method: as §1

[6] = post-emergence, Postemergence, scale 0 to 100, 0 no effect
[7] = post-emergence, Postemergence, scale 0 to 100
[8] = pre-emergence, Preemergence, 0 to 100 scale, 0 no effect
[9] = pre-emergence, Preemergence, scale 0 to 100
[10] = Cynodon dactylon, post-emergence, Postemergence, scale 0 to 100, read-out: Plant response rating, Bermudagrass
[11] = Cynodon dactylon, pre-emergence, Preemergence, scale 0 to 100, read-out: Plant response rating, Bermudagrass

## Cc1cc(-c2ccc(C(F)(F)F)cc2)nn1-c1c(O)cnn(C)c1=O [Compound 1, 5-hydroxy-2-methyl-4-[5-methyl-3-[4-(trifluoromethyl)phenyl]-1H-pyrazol-1-yl]-3(2H)-pyridazinone]
Soybean (Glycine max); [6]
  plant injury at 31 g/ha: 0%
Soybean (Glycine max); post-emergence, Postemergence, 62 g ai/ha, scale 0 to 100
  plant injury at 62 g/ha: 25%
Soybean (Glycine max); post-emergence, Postemergence, 125 g ai/ha, scale 0 to 100
  plant injury at 125 g/ha: 50%
Soybean (Glycine max); [7]
  plant injury at 250 g/ha: 60%
Soybean (Glycine max); [8]
  plant injury at 31 g/ha: 0%
Soybean (Glycine max); [9]
  plant injury at 250 g/ha: 0%
[1]; post-emergence, Postemergence
  pest or weed control at 62 g/ha: 0%
  pest or weed control at 125 g/ha: 0%
  pest or weed control at 250 g/ha: 0%
[1]; pre-emergence, Preemergence, 31 g ai/ha, 0 to 100 scale, 0 no effect, 100 complete control
  pest or weed control at 31 g/ha: 0%
[1]; pre-emergence, Preemergence
  pest or weed control at 62 g/ha: 0%
  pest or weed control at 125 g/ha: 0%
  pest or weed control at 250 g/ha: 0%
[2]; [6]
  pest or weed control at 31 g/ha: 0%
[2]; post-emergence, Postemergence
  pest or weed control at 62 g/ha: 0%
  pest or weed control at 125 g/ha: 0%
  pest or weed control at 250 g/ha: 0%
[2]; [8]
  pest or weed control at 31 g/ha: 0%
[2]; pre-emergence, Preemergence
  pest or weed control at 62 g/ha: 0%
  pest or weed control at 125 g/ha: 0%
  pest or weed control at 250 g/ha: 0%
[3]; 31 g ai/ha, 0 to 100 scale, 0 no effect, 100 complete control
  pest or weed control at 31 g/ha: 0%
[3]; 62 g ai/ha, scale 0 to 100
  pest or weed control at 62 g/ha: 0%
[3]; 125 g ai/ha, scale 0 to 100
  pest or weed control at 125 g/ha: 0%
[3]; 250 g ai/ha, scale 0 to 100
  pest or weed control at 250 g/ha: 0%
[4]; [6]
  pest or weed control at 31 g/ha: 30%
[4]; [7]
  pest or weed control at 62 g/ha: 60%
  pest or weed control at 125 g/ha: 95%
  pest or weed control at 250 g/ha: 100%
[4]; [8]
  pest or weed control at 31 g/ha: 40%
[4]; [9]
  pest or weed control at 62 g/ha: 80%
  pest or weed control at 125 g/ha: 80%
[4]; pre-emergence, Preemergence, scale 0 to 100 (0 no effect, 100 complete control)
  pest or weed control at 250 g/ha: 95%
Kochia (Kochia scoparia); Postemergence, 31 g ai/ha, scale 0 to 100, 0 no effect, 100 complete control
  Plant response rating, Kochia: 0
Kochia (Kochia scoparia); Postemergence, 62 g ai/ha, scale 0 to 100
  Plant response rating, Kochia: 0
Kochia (Kochia scoparia); Postemergence, 125 g ai/ha, scale 0 to 100
  Plant response rating, Kochia: 0
Kochia (Kochia scoparia); Postemergence, 250 g ai/ha, scale 0 to 100
  Plant response rating, Kochia: 20
Kochia (Kochia scoparia); Preemergence, 62 g ai/ha, scale 0 to 100
  Plant response rating, Kochia: 0
Kochia (Kochia scoparia); Preemergence, 125 g ai/ha, scale 0 to 100
  Plant response rating, Kochia: 20
[5]; 250 g ai/ha, preemergence, 0-100 scale
  Bermudagrass plant response rating: 100
[5]; Cynodon dactylon, post-emergence, Postemergence, scale 0 to 100, 0 no effect, read-out: Plant response rating, Bermudagrass
  pest or weed control at 31 g/ha: 100%
[5]; [10]
  pest or weed control at 62 g/ha: 100%
  pest or weed control at 125 g/ha: 100%
[5]; Cynodon dactylon, post-emergence, Postemergence, 250 g ai/ha, scale 0 to 100, read-out: Plant response rating, Bermudagrass
  pest or weed control at 250 g/ha: 100%
[5]; Cynodon dactylon, pre-emergence, Preemergence, 0 to 100 scale, 0 no effect, read-out: Plant response rating, Bermudagrass
  pest or weed control at 31 g/ha: 100%
[5]; [11]
  pest or weed control at 62 g/ha: 100%
  pest or weed control at 125 g/ha: 100%
